# Test system: H3K27ac at the MYC promoter in MV4-11 cells
# Test: ChIP-qPCR for H3K27ac
# Assay type: cell-based
# Details: 500 nmol/L
# Method: MV4-11 cells were treated with vehicle DMSO or 500 nmol/L COMPOUND I for 2, 6, or 24 hours and then crosslinked with 1% formaldehyde. Chromatin was extracted by sonication and then incubated with H3K27ac (Active Motif #39133) antibody overnight. The antibody:DNA complexes were isolated with Protein G beads (Invitrogen Dynabeads catalog #10004D) and analyzed by qPCR with primers specific to the MYC promoter (Table 7). H3K27ac enrichment was calculated as fold over input DNA control.
# Regulation of MYC expression is a complex process that involves MYC transcription, mRNA stability, and protein turnover. ChIP-qPCR analysis for H3K27ac, a well-established marker of active chromatin, was performed to assess transcriptional competency of the MYC gene promoter after treatment with COMPOUND I (FIG. 19D). […] To determine whether COMPOUND I affected MYC mRNA stability, an RNA decay assay was performed on EOL-1 cells.
structure (smiles),measurement,value
"Cc1[nH]c2ccc(F)cc2c1-c1nc2c3cccnc3c3ncccc3c2[nH]1 [COMPOUND I, 2-(5-fluoro-2-methyl-1H-indol-3-yl)-1H-imidazo[4,5-f][1,10]phenanthroline]",earliest time a decrease in H3K27ac at the MYC promoter was observed,2 h

# From US11149047B2, “Aryl imidazoles for treatment of cancer” (Aptose Biosciences Inc., priority 2017, dated 2021)
